Source: publication PMC10178848, “Modulating fast skeletal muscle contraction protects skeletal muscle in animal models of Duchenne muscular dystrophy” (The Journal of Clinical Investigation, 2023)

Target: T1, RET (Homo sapiens, UniProt P07949)
T1 construct: purchased Eurofins DiscoverX (KINOMEscan; SAFETYscan E/IC50 ELECT)
Assay: KINOMEscan scanEDGE
Type: binding
Conditions: 20 uM

T1 sequence (P07949 29-1114): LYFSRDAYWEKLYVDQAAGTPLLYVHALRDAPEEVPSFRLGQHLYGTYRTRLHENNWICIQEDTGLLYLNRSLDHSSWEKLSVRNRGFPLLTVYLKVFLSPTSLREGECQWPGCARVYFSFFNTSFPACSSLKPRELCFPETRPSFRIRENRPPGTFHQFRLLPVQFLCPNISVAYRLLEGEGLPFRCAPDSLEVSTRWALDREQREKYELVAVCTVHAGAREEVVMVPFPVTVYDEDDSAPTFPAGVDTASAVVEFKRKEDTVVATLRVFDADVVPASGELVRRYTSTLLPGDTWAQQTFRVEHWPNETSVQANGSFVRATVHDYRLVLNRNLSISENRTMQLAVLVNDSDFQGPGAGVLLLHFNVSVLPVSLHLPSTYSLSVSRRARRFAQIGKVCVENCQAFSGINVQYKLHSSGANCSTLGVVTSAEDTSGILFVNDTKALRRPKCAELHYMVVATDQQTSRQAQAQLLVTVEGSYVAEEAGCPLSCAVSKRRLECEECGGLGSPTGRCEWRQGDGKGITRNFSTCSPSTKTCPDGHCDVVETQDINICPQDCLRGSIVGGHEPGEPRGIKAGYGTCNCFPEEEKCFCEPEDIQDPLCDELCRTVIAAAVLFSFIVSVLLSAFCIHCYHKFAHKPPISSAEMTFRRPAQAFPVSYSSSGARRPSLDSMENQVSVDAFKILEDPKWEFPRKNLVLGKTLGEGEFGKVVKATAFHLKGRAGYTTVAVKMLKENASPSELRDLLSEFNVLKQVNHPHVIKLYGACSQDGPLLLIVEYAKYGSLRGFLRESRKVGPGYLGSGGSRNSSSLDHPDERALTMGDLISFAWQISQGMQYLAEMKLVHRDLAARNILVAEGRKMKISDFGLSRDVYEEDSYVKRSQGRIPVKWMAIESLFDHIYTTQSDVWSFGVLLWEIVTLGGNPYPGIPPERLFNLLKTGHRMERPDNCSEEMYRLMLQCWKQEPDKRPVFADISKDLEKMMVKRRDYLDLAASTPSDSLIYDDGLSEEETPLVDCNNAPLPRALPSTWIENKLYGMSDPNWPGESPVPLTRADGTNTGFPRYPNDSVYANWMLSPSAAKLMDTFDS

Compound: O=c1ccc(-c2cnc(OCC(F)(F)F)nc2)nn1Cc1cncc(F)c1 [EDG-5506]
- binding, % of control: 52 % of control
